Laboratory results from patent publication US8008007B2, “S-adenosyl-L-methionine analogs with extended activated groups for transfer by methyltransferases” (RWTH Aachen, priority 2005, dated 2011).

Experiments:
Assay type in all cases: biochemical
M.TaqI [1] = molecular target: T1, M.TaqI (Thermus aquaticus, UniProt P14385); experiment: Modification of adenine-N6 in duplex oligodeoxynucleotide I.II by M.TaqI, nucleoside analysis by HPLC/ESI-MS; conditions: 37° C. over night, near-stoichiometric enzyme
T1 construct: made in house
T1 sequence (P14385 whole entry): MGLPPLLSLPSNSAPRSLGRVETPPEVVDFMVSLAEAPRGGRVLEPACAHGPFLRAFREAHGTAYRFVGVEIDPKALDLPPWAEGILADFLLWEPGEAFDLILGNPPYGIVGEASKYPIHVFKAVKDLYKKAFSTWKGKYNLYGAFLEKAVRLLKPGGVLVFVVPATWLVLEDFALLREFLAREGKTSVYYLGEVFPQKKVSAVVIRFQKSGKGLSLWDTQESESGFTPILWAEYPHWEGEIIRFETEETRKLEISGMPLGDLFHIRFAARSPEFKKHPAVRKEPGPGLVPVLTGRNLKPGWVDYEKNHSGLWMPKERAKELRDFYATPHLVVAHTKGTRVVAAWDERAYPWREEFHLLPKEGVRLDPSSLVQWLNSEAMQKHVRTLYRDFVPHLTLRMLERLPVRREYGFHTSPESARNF
Description: Transfer of the activated ethyl (CH2CH3), propyl (CH2CH2CH3), prop-2-enyl (CH2CHCH2), prop-2-ynyl group (CH2CCH), but-2-ynyl (CH2CCCH3), pent-2-ynyl (CH2CCCH2CH3) or benzyl group (CH2C6H5) from cofactors 3-9 by the DNA adenine-N6 methyltransferase M.TaqI, the DNA cytosine-C5 methyltransferase M.HhaI variant Q82A or the DNA cytosine-N4 methyltransferase M.BcnIB to DNA was first investigated using short duplex oligodeoxynucleotides as substrates. After enzymatic transfer the duplex oligodeoxynucleotides were enzymatically fragmented and the resulting modified nucleosides were analyzed by reversed-phase HPLC coupled with ESI-MS.
M.TaqI was denatured by heating to 95° C. for 10 min and removed by centrifugation ([…], 2 min). The modified duplex oligodeoxynucleotides I^Z—R-II were desalted by gel filtration (NAP-5 column, Amersham Biosciences, Freiburg, Germany), eluted with water (1 mL) and lyophilized.
The modified duplex oligodeoxynucleotides I^Z—R-II were dissolved in buffer (100 μL, 10 mM Tris hydrochloride, 10 mM magnesium chloride, 1 mM zinc acetate, pH 7.5) containing Nuclease PI (1500 u, Sigma, Taufkirchen, Germany) and calf intestine alkaline phosphatase (30 u, MBI Fermentas, St. Leon-Rot, Germany) and incubated at 37° C. for 4 h. Nucleosides were analyzed by reversed-phase HPLC (Symmetry-C18 5 μm, 100 Å, 250×4.6 mm, equipped with a Symmetry-C18 5 μm, 100 Å, 20×4.6 mm pre-column, Waters, Eschborn, Germany). Compounds were eluted with acetonitrile (5% for 7 min, followed by linear gradients to 6% in 15 min, to 35% in 8 min and to 70% in 2 min) in triethylammonium acetate buffer (10 mM, pH 7.0) at a flow of 1 mL/min and detected at 254 nm.
For HPLC-coupled ESI-MS measurements compounds were eluted with methanol (0% for 3 min, followed by a linear gradient to 100% in 22 min) in ammonium formate buffer (20 mM, pH 3.5). A post-column mobile phase modification (equal co-flow of 96% methanol, 4% formic acid) was used to enhance the detection efficiency of 2′-deoxyadenosine and its derivatives. Mass spectra were recorded in 200-370 m/z range.
The hemimethylated duplex oligodeoxynucleotide I.II (compare Scheme 5, Example 2A) was produced by mixing equal molar amounts of complementary single-stranded oligodeoxynucleotide I (5′-GCCGCTCGATGCCG-3′) (SEQ. ID NO. 1) and II (5′-CGGCATCGA^MeGCGGC-3′, A^Me=N6-methyl-2′-deoxyadenosine) (SEQ ID NO. 2) in water, heating at 85° C. for 5 min and slow cooling to room temperature. […] The solution was heated to 95° C. for 10 min, supplemented with Proteinase K and incubated at 55° C. for 2 h. Hydrolysis products were removed by gel filtration (G-25 column, Amersham Biosciences).
The obtained solution was treated with buffer ( 1/10 volume, 100 mM Tris hydrochlorid, 100 mM magnesium chloride, 10 mM zinc acetate, pH 7.5) containing Nuclease P1 (1.14 u, Sigma, Taufkirchen, Germany) and calf intestine alkaline phosphatase (18 u, MBI Fermentas), incubated at 42° C. for 4 h and passed through a Microcon YM-3 spin column (Amicon). Nucleosides were analyzed by reversed-phase HPLC (Discovery HS C18 75×2.1 mm, 3 μm, equipped with a Supelguard Discovery HS C18 20×2.1 mm, 5 μm, pre-column, Supelco, Germany) coupled with a mass spectrometric detector (HP 1100 series ESI-MS equipped with single quadruple). Compounds were eluted with methanol (0% for 3 min, followed by linear gradients to 20% in 15 min and to 80% in 2 min) in ammonium formate buffer (20 mM, pH 3.5) at a flow of 0.3 mL/min. For on-line mass spectrometric detection post-column mobile phase modification (equal co-flow of 96% methanol, 4% formic acid and 1 mM sodium hydroxide) was used to enhance the detection efficiency of 2′-deoxyadenosine, 2′-deoxycytidine and their derivatives. Mass spectra were recorded in 50-600 m/z range.

M.TaqI-V21G = molecular target: T2, M.TaqI-V21G (Thermus aquaticus, UniProt P14385, V21G); experiment: DNA protection assay with M.TaqI variant V21G on phage lambda DNA; conditions: 1 μg phage lambda DNA, cofactor 300 μM, 60° C. for 4 h, then R.TaqI
T2 construct: made in house
T2 sequence (P14385 whole entry V21G): as the sequence (P14385 whole entry) above, with V21G counted along it
Description: (§1) Transfer kinetics of the activated ethyl (—CH2CH3), propyl (—CH2CH2CH3), prop-2-enyl (—CH2CH═CH2), prop-2-ynyl (—CH2C≡CH), but-2-ynyl (—CH2C≡CCH3), pent-2-ynyl (—CH2C≡CCH2CH3) and benzyl group (—CH2C6H5) from cofactors 3-9 by the DNA adenine-N6 methyltransferase M.TaqI and its variant V21 G, the DNA cytosine-C5 methyltransferase M.HhaI and its variant Q82A, the DNA cytosine-N4 methyltransferase M.BcnIB and the DNA cytosine-C5 methyltransferase M.SssI variant Q142A to phage lambda DNA (48502 base pairs) were investigated using a DNA protection assay. This assay makes use of the fact that DNA methyltransferase-catalyzed modifications of nucleobases within the recognition sequences of restriction endonucleases can protect the DNA against fragmentation by these enzymes. […] Unmodified DNA containing 5′-TCGA-3′ recognition sequences is readily fragmentated by R.TaqI. After DNA modification by M.TaqI in the presence of a cofactor with an activated group Z—R modified 5′-TCGA^Z—R-3′ sequences are formed and, as a result, R.TaqI is unable to fragment the modified DNA. Occurrence of fragmentation is then analyzed by agarose gel electrophoresis.
(§2) By varying the amounts of DNA methyltransferase, this assay is used to investigate the enzymatic activities of the different DNA methyltransferases with cofactors 3-9 and compare them to the enzymatic activities with the natural cofactor 1. The minimal amount of DNA methyltransferase needed to fully protect 1 μg of phage lambda DNA against restriction endonuclease fragmentation under the given experimental conditions is defined as one enzyme unit (u).
(§3) Afterwards a solution (30 μL) containing R.TaqI restriction endonuclease (40 u, MBI Fermentas), bovine serum albumin (0.166 mg/mL) and buffer (16.6 mM Tris hydrochloride, 166 mM sodium chloride, 8.3 mM magnesium chloride, pH 8.0) was added to each dilution and incubation at 60-65° C. was continued for 15 min. Loading buffer (10 μL, 0.25% bromphenol blue, 30% glycerol) was added to each sample, and aliquots (12 μL) were analyzed for the degree of protection by agarose gel (1%) electrophoresis. Parallel control experiments were performed with phage lambda DNA in the absence of M.TaqI and in the presence of M.TaqI (200 ng).
Therefore, the codon for V21 was changed to a codon for glycine by standard PCR mutagenesis (Ho et al., (1989) Gene 77, 51-59) and the correct DNA sequence of the complete gene was verified by DNA sequencing. […] The DNA protection assay with the V21G variant was performed as described for the wild type (Example 3A.1).

M.TaqI [2] = molecular target: T1, M.TaqI; experiment: DNA protection assay with M.TaqI (wild-type) on phage lambda DNA; conditions: 1 μg phage lambda DNA, cofactor 300 μM, 60° C. for 4 h, then R.TaqI; 1 u = minimal enzyme amount fully protecting 1 μg DNA
Description: as §1, §2, §3
Afterwards a solution (10 μL) containing R.TaqI restriction endonuclease (10 u, MBI Fermentas), bovine serum albumin (0.1 mg/mL) and buffer (33 mM Tris acetate, 66 mM potassium acetate, 10 mM magnesium acetate, pH 7.9) was added to each dilution and incubation was continued at 65° C. for 1 h. […] Parallel control experiments were performed with phage lambda DNA in the absence of M.TaqI and in the presence of M.TaqI (180 ng).

M.HhaI-Q82A = molecular target: T3, M.HhaI-Q82A (Haemophilus parahaemolyticus, UniProt P05102, Q82A); experiment: DNA protection assay with M.HhaI variant Q82A on phage lambda DNA; conditions: 1.16 μg phage lambda DNA, cofactor 300 μM, 37° C. for 4 h, then R.Hin6I; pH 7.4 (pH 6.0 for cofactor 6)
T3 construct: made in house
T3 sequence (P05102 whole entry Q82A): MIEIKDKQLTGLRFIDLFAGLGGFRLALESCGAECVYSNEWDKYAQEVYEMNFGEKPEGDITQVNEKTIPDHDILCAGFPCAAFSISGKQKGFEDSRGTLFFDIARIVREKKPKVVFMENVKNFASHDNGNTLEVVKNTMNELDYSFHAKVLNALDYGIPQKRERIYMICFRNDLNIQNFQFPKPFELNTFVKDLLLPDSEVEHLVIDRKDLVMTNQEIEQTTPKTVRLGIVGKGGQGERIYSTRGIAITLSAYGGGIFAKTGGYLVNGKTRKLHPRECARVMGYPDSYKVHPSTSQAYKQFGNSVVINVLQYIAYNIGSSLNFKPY
Description: as §1, §2
(§4) Afterwards, the reactions were stopped by heating to 80° C. for 10 min. […] Parallel control experiments were performed with phage lambda DNA in the absence of M.HhaI and in the presence of M.HhaI (278 ng).
The DNA protection assay with the M.HhaI variant Q82A (see Example 2B) was performed as described for the wild type enzyme (Example 3B.1).

M.HhaI = molecular target: T4, M.HhaI (Haemophilus parahaemolyticus, UniProt P05102); experiment: DNA protection assay with M.HhaI (wild-type) on phage lambda DNA; conditions: 1.16 μg phage lambda DNA, cofactor 300 μM, 37° C. for 4 h, then R.Hin6I; pH 7.4 (pH 6.0 for cofactor 6)
T4 construct: made in house
T4 sequence (P05102 whole entry): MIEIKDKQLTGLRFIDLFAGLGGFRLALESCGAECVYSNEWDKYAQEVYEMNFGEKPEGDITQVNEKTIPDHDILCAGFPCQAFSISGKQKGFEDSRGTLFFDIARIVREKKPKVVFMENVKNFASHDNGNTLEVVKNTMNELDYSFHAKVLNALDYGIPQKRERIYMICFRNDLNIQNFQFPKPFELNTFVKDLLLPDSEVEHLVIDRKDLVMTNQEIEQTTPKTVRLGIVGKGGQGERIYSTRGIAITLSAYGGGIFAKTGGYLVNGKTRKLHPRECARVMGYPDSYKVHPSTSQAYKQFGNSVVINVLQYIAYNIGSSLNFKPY
Description: as §1, §2, §4

M.SssI-Q142A = molecular target: T5, M.SssI-Q142A (Spiroplasma monobiae, UniProt P15840, Q142A); experiment: DNA protection assay with M.SssI variant Q142A on phage lambda DNA; conditions: 1 μg phage lambda DNA, cofactor 300 μM, 37° C. for 4 h, then R.BstUI
T5 construct: made in house
T5 sequence (P15840 whole entry Q142A): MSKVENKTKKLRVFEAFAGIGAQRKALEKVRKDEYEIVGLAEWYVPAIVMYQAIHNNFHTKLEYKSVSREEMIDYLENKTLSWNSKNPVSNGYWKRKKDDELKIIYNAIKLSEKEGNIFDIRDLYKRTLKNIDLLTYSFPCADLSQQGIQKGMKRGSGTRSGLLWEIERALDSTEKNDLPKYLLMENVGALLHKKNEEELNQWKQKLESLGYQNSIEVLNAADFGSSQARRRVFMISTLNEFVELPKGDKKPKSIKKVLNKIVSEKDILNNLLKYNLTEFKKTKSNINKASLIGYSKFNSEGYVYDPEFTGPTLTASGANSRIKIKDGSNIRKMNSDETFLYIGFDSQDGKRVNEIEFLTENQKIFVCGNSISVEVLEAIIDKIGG
Description: as §1
By varying the amounts of DNA methyltransferase, this assay is used to investigate the enzymatic activities of the different DNA methyltransferases with cofactors 3-9 and compare them to the enzymatic activities with the natural cofactor 1. […]
Two fold serial dilutions (20 μL) of M.SssI-Q142A (starting with 3300 ng, 73 pmol) in buffer (10 mM Tris hydrochloride, 50 mM sodium chloride, 1 mM dithiothreitol, pH 7.9), phage lambda DNA (1 μg, 31.3 fmol, 3113 5′-CG-3′ recognition sequences, […] recognition sequences, MBI Fermentas) and the natural cofactor 1 (300 μM) or cofactor analogs 5 and 7 (300 μM) were incubated at 37° C. for 4 h. […] Loading buffer (10 μL, 0.25% bromphenol blue, 30% glycerol) was added to each sample, and aliquots (15 μL) were analyzed for the degree of protection by agarose gel (1%) electrophoresis.

M.BcnIB = experiment: DNA protection assay with M.BcnIB (wild-type) on phage lambda DNA; conditions: 1.10 μg phage lambda DNA, cofactor 300 μM, 37° C. for 4 h, then R.BcnI; pH 7.4 (pH 6.0 for cofactor 6)
Description: as §1, §2
Afterwards the reactions were stopped by heating to 80° C. for 10 min. A solution (10 μL) containing R.BcnI restriction endonuclease (12 u, MBI Fermentas), bovine serum albumin (0.1 mg/mL) and buffer (33 mM Tris acetate, 66 mM potassium acetate, 26.5 mM magnesium chloride, pH 7.9) was added to each dilution and incubation at 37° C. was continued for 1 h. […] Parallel control experiments were performed with phage lambda DNA in the absence of M.BcnIB and in the presence of M.BcnIB (144 ng).

SMILES	cofactor function for M.TaqI (transfer of group Z-R to adenine-N6) (M.TaqI [1])	specific activity of M.TaqI-V21G with the cofactor (M.TaqI-V21G) [u/μg]	specific activity of M.TaqI with the cofactor (M.TaqI [2]) [u/μg]	specific activity of M.HhaI-Q82A with the cofactor (M.HhaI-Q82A) [u/μg]	specific activity of M.HhaI with the cofactor (M.HhaI) [u/μg]	specific activity of M.SssI-Q142A with the cofactor (M.SssI-Q142A) [u/μg]	specific activity of M.BcnIB with the cofactor (M.BcnIB) [u/μg]
Nc1ncnc2c1ncn2C1OC(C[S+](CCC(N)C(=O)O)Cc2ccccc2)C(O)C1O (mixture of isomers) [Cofactor 9]	functions as a cofactor	2560	640	–	–	–	–
C[S+](CCC(N)C(=O)O)CC1OC(n2cnc3c(N)ncnc32)C(O)C1O (stereo not drawn) [Cofactor 1]	–	320	40960	115	460	20	444
